Test results taken from PubChem BioAssay (NCI).
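Growth conditions: 96-well plates. Treatment: test compound, 48 hours, 5 concentrations. Analysis: linear interpolation between bracketing concentrations; unreached endpoints set to highest concentration. GI50 = concentration required for 50% inhibition of growth. TGI: concentration producing complete growth inhibition.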

Assays:
Experiment in all cases: NCI tumour cell line growth inhibition, 48 h
DLD-1 colon = system: DLD-1 colon
DMS 273 small cell lung = system: DMS 273 small cell lung
HOP-18 NSCLC = system: HOP-18 NSCLC
KM20L2 colon = system: KM20L2 colon
P388 leukemia = system: P388 leukemia
P388/ADR leukemia = system: P388/ADR leukemia
SN12K1 renal = system: SN12K1 renal
SNB-78 CNS = system: SNB-78 CNS
XF 498 CNS = system: XF 498 CNS
LXFL 529 NSCLC = system: LXFL 529 NSCLC
RXF-631 renal = system: RXF-631 renal
MDA-N = system: MDA-N

Row | SMILES | TGI (DLD-1 colon) [µM] | TGI (DMS 273 small cell lung) [µM] | TGI (HOP-18 NSCLC) [µM] | TGI (KM20L2 colon) [µM] | TGI (SNB-78 CNS) [µM] | TGI (XF 498 CNS) [µM] | TGI (LXFL 529 NSCLC) [µM] | TGI (MDA-N) [µM] | other results
1 | CC(C)=CCC(OC(=O)C=C(C)C)C1=CC(=O)c2c(O)ccc(O)c2C1=O (configuration not stated) | 0.674 | 5.53 | 7.58 | 5.64 | 5.88 | 1.74 | – | – | TGI (P388 leukemia): 2.77 µM; TGI (P388/ADR leukemia): 19.5 µM; TGI (SN12K1 renal): 2.93 µM
2 | Cc1ccc(S(=O)(=O)c2ccccc2[N+](=O)[O-])cc1 | > 100 | > 100 | – | > 100 | > 100 | > 100 | > 100 | – | TGI (RXF-631 renal): > 100 µM
3 | CC1=Nc2ccccc2/C1=C\c1c(C)[nH]c2ccccc12 | – | – | – | – | – | – | – | 37.4 | –
4 | CCCC(=O)N[C@H]1C2C3CC4C5CC(C42)C1(C)C53 (some centres not stated) | > 100 | > 100 | > 100 | > 100 | > 100 | – | – | – | –
5 | O=C(O)CCNCCCCNCCC(=O)O | > 100 | > 100 | > 100 | > 100 | – | > 100 | > 100 | – | –
6 | N/N=C1\C(=O)N(c2ccc(Cl)cc2Cl)C(=O)C(=O)C1c1nc2ccccc2o1 (configuration not stated) | > 100 | > 100 | > 100 | > 100 | > 100 | – | > 100 | – | TGI (RXF-631 renal): > 100 µM
7 | C[Si](C)(C)/C=C\CCO | > 100 | > 100 | > 100 | > 100 | > 100 | > 100 | > 100 | – | TGI (RXF-631 renal): > 100 µM
8 | CC(C)Cc1ccc(C(C)CC2=CCC(CN(C)C)C2=O)cc1 (configuration not stated) | 5.61 | 14.9 | 32.6 | 21.2 | 14.7 | – | 3.11 | 17.9 | TGI (P388 leukemia): 6.34 µM; TGI (P388/ADR leukemia): > 100 µM; TGI (RXF-631 renal): 30.5 µM; TGI (SN12K1 renal): 11.7 µM
9 | C1CC2CN(CCCN3CCOCC3)C(C1)O2 (configuration not stated) | – | – | – | – | – | – | – | > 100 | –
10 | Cc1cccc(C)c1NC(=O)CCc1nc(=S)[nH][nH]1 | > 100 | – | – | > 100 | > 100 | > 100 | > 100 | – | TGI (RXF-631 renal): > 100 µM
11 | c1ccc2c(c1)oc1ccc3nsnc3c12 | > 100 | > 100 | > 100 | > 100 | – | – | > 100 | – | TGI (RXF-631 renal): > 100 µM
12 | CC1CCSC(N(C(=O)N(C)c2ccccc2)c2ccccc2)=N1 (configuration not stated) | > 100 | > 100 | – | > 100 | > 100 | > 100 | > 100 | – | –
13 | O=C1CC(c2[nH]nc3ccccc23)C(=O)N1c1ccccc1 (configuration not stated) | > 100 | > 100 | > 100 | > 100 | > 100 | > 100 | > 100 | > 100 | TGI (RXF-631 renal): > 100 µM
14 | COC(=O)CC(NC(=O)OCc1ccccc1)C(C(=O)OCc1ccccc1)C(C)(OC)OC (configuration not stated) | > 100 | > 100 | – | > 100 | – | 37.3 | 57.2 | – | –
15 | C=C1C(=O)OC2CC(C)C3CC(O)OC(OCC)C3(C)CC12 (configuration not stated) | – | – | – | – | – | – | – | 35.7 | –
16 | CN1CCc2c1nc(-c1ccc(Cl)cc1)c1c2N(C)CC1 | 82.4 | 32 | – | 72.3 | > 100 | 32.6 | 77 | – | –
17 | COc1cc2c(cc1O)CC1c3c(cc(O)c(OC)c3-2)CCN1C (configuration not stated) | – | – | – | – | – | – | – | > 100 | –
18 | COc1ccc(CCn2c(=O)c3ccccc3n(C)c2=O)cc1 | > 100 | – | – | > 100 | > 100 | > 100 | > 100 | – | –
19 | O=C1CCC(N2C(=O)c3ccccc3C2=O)C(=O)N1 (configuration not stated) | – | – | – | – | – | – | – | > 100 | –
20 | Cc1c(NC(=S)NC(=O)c2ccc([N+](=O)[O-])cc2)c(=O)n(-c2ccccc2)n1C | > 100 | > 100 | > 100 | > 100 | > 100 | – | > 100 | – | –
21 | c1cncc(CNCc2cccnc2)c1 | – | – | – | – | – | – | – | > 100 | –

Row | SMILES | TGI (DLD-1 colon) [µM] | TGI (DMS 273 small cell lung) [µM] | TGI (HOP-18 NSCLC) [µM] | TGI (KM20L2 colon) [µM] | TGI (SNB-78 CNS) [µM] | TGI (XF 498 CNS) [µM] | TGI (LXFL 529 NSCLC) [µM] | TGI (MDA-N) [µM] | other results
22 | CC1=Cc2ccc(C)cc2C(=O)C1=O | – | – | – | – | – | – | – | 11.9 | –
23 | COC(=O)c1c2c(cc3c1CC1(Cc4cc5c(c(C(C)=O)c4C1)CCC5)C3)CCC2 (configuration not stated) | > 100 | > 100 | > 100 | – | > 100 | > 100 | > 100 | – | –
24 | CN(C)CCSS(=O)(=O)O | – | – | – | – | – | – | – | > 100 | –
25 | C=CCC1=C(C)C[C@@H]2CCC(=O)C=C12 | – | > 100 | – | – | > 100 | – | > 100 | – | TGI (RXF-631 renal): > 100 µM
26 | O=C(Nn1c(-c2ccccc2)nc2ccccc2c1=O)c1ccccc1O | – | – | – | – | – | – | – | > 100 | –
27 | COC(=O)C1C(O)C(C)C(O)C(C)C=C(C)C2=C3C(=C(C)C(=O)c4c(O)c(c(C)c(OC(C)=O)c43)NC(=O)C(C)=C/C=C\C(C)C(O)C(C)C1O)OCO2 (configuration not stated) | – | – | – | – | – | – | – | 31.8 | –
28 | CC1=NN(C(=O)c2ccc(Cl)cc2)C(=O)/C1=C/c1ccccc1O | > 100 | – | – | > 100 | > 100 | > 100 | > 100 | – | –
29 | N.N.N.N.N.O=[N+]([O-])[O-].[Co+3].[O-][Cl+3]([O-])([O-])[O-] | > 100 | > 100 | – | > 100 | > 100 | – | > 100 | – | GI50 (DLD-1 colon): > 100 µM; GI50 (DMS 273 small cell lung): > 100 µM; GI50 (KM20L2 colon): > 100 µM; GI50 (LXFL 529 NSCLC): > 100 µM; GI50 (SNB-78 CNS): > 100 µM
30 | Cc1cc(N(CCC#N)CCC#N)ccc1N=Nc1ccc(Br)cc1 | > 100 | > 31.6 | > 100 | > 100 | > 65.8 | 13.3 | > 100 | – | TGI (RXF-631 renal): 25.1 µM
31 | COc1ccc(/C(Cl)=C/c2cc(OC)ccc2OC)cc1 | > 100 | > 100 | > 100 | > 100 | > 100 | > 100 | > 100 | – | –
32 | CC(=O)OCC(=O)[C@@]12OC(C)(C)O[C@@H]1C[C@H]1[C@@H]3CC(C=O)=C4C=C(OCCCl)CC[C@]4(C)[C@@]3(F)[C@@H](O)C[C@@]12C | > 100 | > 100 | 87.6 | 38.2 | 68.8 | 35.8 | – | – | –
33 | CC(=O)O[C@]1(C)OC(=O)[C@@H](CC(C)C)N1[N+](=O)[O-] | > 100 | > 100 | > 100 | > 100 | > 100 | – | > 100 | – | –
34 | CC(C)(C)C(=CS(=O)/N=C/c1ccccc1)C(C)(C)C (configuration not stated) | > 100 | 92 | – | > 100 | > 100 | 89.7 | 76.5 | – | TGI (RXF-631 renal): > 100 µM
35 | O=c1[nH]c2ccccc2n1CCCN1CCC(n2c(=O)[nH]c3cc(Cl)ccc32)CC1 | – | – | – | – | – | – | – | 29.4 | –
36 | CCOC(=O)N1CCc2cc(OC)c(OC)cc2/C1=C\c1ccc(OC)c(OC)c1 | > 100 | 61.9 | 90.7 | 65.4 | > 100 | > 10 | > 100 | – | –
37 | C=CCO/N=C(\OC(=O)c1ccc([N+](=O)[O-])cc1)c1ccccc1 | > 100 | > 100 | > 100 | – | > 100 | – | > 100 | – | TGI (RXF-631 renal): > 100 µM
38 | Cc1ccc(N=Nc2c(O)ccc3ccccc23)cc1 | – | – | – | – | – | – | – | > 100 | –
39 | CC(=O)[O-].[Mn+3].[O-]c1ccccc1C=NCCNCCN=Cc1ccccc1[O-] | – | > 100 | > 100 | – | > 100 | – | > 100 | – | GI50 (DMS 273 small cell lung): > 100 µM; GI50 (HOP-18 NSCLC): > 100 µM; GI50 (LXFL 529 NSCLC): > 100 µM; GI50 (SNB-78 CNS): > 100 µM
40 | O=C1/C(=C/c2ccccc2)CN(C(=O)CCN2CCCC2)C/C1=C\c1ccccc1 | 3.12 | 3.58 | 9.09 | 3.91 | 16.5 | 16.8 | 4.36 | 1.46 | TGI (RXF-631 renal): 13.2 µM
41 | C1CC[N-]CC1.CC(=N\O)/C(C)=N/O.CC(=N\O)/C(C)=N/O.OC1[CH-]CCCC1.[Co+2] | – | – | – | – | – | – | – | > 100 | GI50 (MDA-N): 40.9 µM
42 | COc1ccc(C(=O)C(CC2C(=O)NC(=O)NC2=O)c2ccc(OC)cc2)cc1 (configuration not stated) | > 100 | > 100 | > 100 | > 100 | > 100 | > 100 | > 100 | – | –
